Target: ATP-dependent translocase ABCB1 (Homo sapiens, UniProt P08183)
Experiment: TP_TRANSPORTER: increase in Calcein intracellular accumulation (Calcein: 50 mg/L, Carvedilol: 10 uM) in Hs578T-Dox cells
Type: functional, cell-based

Chain of ATP-dependent translocase ABCB1 (P08183 whole entry): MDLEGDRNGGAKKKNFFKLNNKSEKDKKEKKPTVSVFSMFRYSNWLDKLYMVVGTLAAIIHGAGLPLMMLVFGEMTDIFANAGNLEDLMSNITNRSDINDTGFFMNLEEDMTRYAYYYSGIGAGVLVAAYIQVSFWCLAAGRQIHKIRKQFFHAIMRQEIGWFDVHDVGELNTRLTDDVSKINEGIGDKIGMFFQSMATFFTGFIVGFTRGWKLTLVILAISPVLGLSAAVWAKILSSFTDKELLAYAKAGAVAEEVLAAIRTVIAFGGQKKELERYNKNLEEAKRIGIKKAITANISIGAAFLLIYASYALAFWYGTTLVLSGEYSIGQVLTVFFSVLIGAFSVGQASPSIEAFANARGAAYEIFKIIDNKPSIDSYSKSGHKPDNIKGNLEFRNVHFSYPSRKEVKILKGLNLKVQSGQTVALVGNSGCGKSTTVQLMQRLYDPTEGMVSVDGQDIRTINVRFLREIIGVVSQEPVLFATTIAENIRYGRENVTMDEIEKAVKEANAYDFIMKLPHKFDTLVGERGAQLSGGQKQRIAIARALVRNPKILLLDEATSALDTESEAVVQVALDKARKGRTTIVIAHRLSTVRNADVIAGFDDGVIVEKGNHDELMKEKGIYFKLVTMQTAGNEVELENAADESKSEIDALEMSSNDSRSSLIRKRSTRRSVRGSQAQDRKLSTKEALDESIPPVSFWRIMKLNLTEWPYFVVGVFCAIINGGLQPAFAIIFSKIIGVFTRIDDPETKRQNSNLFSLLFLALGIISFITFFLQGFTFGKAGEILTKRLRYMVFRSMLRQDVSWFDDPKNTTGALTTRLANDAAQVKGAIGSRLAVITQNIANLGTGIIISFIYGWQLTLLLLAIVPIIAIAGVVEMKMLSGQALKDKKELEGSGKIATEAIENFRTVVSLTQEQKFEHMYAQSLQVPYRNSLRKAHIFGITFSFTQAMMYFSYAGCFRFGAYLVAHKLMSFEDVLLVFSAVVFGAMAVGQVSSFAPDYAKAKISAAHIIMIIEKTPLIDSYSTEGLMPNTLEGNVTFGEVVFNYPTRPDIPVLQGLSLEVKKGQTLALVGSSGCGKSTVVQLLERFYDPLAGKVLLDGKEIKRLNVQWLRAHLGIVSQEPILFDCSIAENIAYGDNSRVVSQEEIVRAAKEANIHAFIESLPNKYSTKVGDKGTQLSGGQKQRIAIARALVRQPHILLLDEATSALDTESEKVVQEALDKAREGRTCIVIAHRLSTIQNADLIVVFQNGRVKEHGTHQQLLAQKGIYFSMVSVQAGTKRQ

`COc1ccccc1OCCNCC(O)COc1cccc2[nH]c3ccccc3c12` (stereo unspecified) [CARVEDILOL] was tested, and the Activity was “inhibitor [+]”.

From ChEMBL document CHEMBL2073985, “Increase in doxorubicin cytotoxicity by carvedilol inhibition of P-glycoprotein activity” (Biochem Pharmacol, 1999)
